Earlier results as cited in patent EP1754488A1, “Methods and compositions for non-viral gene therapy for treatment of hyperproliferative diseases” (Introgen Therapeutics, Inc., priority 1999, dated 2000).
Where a name gives a salt, the structure may show the parent alone. *1 amine or outer side, *2 acyl side, *3 side chain or, on linkers, in order; H or OH if unused. Where a SMILES comes first, the peptide text is derived from it. Bridges are numbered along the chain shown (N, C = ends). Roman numbers before positions name the chains, in order. [ ]: non-standard residue; d: D form. Actinocin(9to1) = Cc1c2oc3c(C)ccc(C(=O)[*:1])c3nc-2c(C(=O)[*:2])c(N)c1=O; NMeV = CN[C@H](C(=O)O)C(C)C; Sar = CNCC(=O)O

What was measured:
multiple myeloma = conditions: oral administration

Question: Which results are given for `CC[C@]1(O)C[C@@H]2CN(CCc3c([nH]c4ccccc34)[C@@](C(=O)OC)(c3cc4c(cc3OC)N(C)[C@H]3[C@@](O)(C(=O)OC)[C@H](OC(C)=O)[C@]5(CC)C=CCN6CC[C@]43[C@@H]65)C2)C1` [Vinblastine]?
Answer: excreted / detected intact in the urine (in vivo): Approximately 15%; half-life of disappearance from plasma after distribution (first) (intravenous injection): approximately 1 hours; half-life of disappearance from plasma after distribution (second) (intravenous injection): ~72000 s

Question: Which “patients showing a favorable response” value (multiple myeloma) does the source give for `N[C@@H](Cc1ccc(N(CCCl)CCCl)cc1)C(=O)O` [Melphalan, 4-[bis(2-chloroethyl)amino]-L-phenylalanine] here?
Answer: about one third to one half of the patients

Question: Which half-life of distribution (in vivo) does the source give for `COc1cccc2c1C(=O)c1c(O)c3c(c(O)c1C2=O)C[C@@](O)(C(C)=O)C[C@@H]3O[C@H]1C[C@H](N)[C@H](O)[C@H](C)O1` [Daunorubicin, 5,12-Naphthacenedione, (8S-cis)-8-acetyl-10-[(3-amino-2,3,6-trideoxy-a-L-lyxo-hexanopyranosyl)oxy]-7,8,9,10-tetrahydro-6,8,11-trihydroxy-10-methoxy-, hydrochloride] here?
Answer: 0.75 h

Question: What does the source list for `Cc1c2oc3c(C)ccc(C(=O)N[C@@H]4C(=O)N[C@H](C(C)C)C(=O)N5CCC[C@H]5C(=O)N(C)CC(=O)N(C)[C@@H](C(C)C)C(=O)O[C@@H]4C)c3nc-2c(C(=O)N[C@@H]2C(=O)N[C@H](C(C)C)C(=O)N3CCC[C@H]3C(=O)N(C)CC(=O)N(C)[C@@H](C(C)C)C(=O)O[C@@H]2C)c(N)c1=O` [Actinomycin D] (I: T[dV]P[Sar][NMeV] / II: T[dV]P[Sar][NMeV]; ester I:1-I:C, II:1-II:C; linker I:N-II:N via Actinocin(9to1))?
Answer: excreted / detected intact in the urine (in vivo): 10%; excreted intact into the bile (in vivo): Half of the dose

Question: Which “radioactivity excreted in the form of degradation products within 24 hours” value (oral radioactive lomustine, 30 mg/m^2 to 100 mg/m^2) does the source give for `O=NN(CCCl)C(=O)NC1CCCCC1` [Lomustine, 1-(2-chloro-ethyl)-3-cyclohexyl-1 nitrosourea] here?
Answer: about half of the radioactivity
